# According to ChEMBL document CHEMBL4507278 (2021):
# Assays:
# [1] = target: Phosphatidylinositol 4-kinase beta (Homo sapiens) (UniProt Q9UBF8); conditions: Compound concentration 1000.0 nM
# [2] = target: Serine/threonine-protein kinase 35 (Homo sapiens) (UniProt Q8TDR2); conditions: Compound concentration 1000.0 nM
# [3] = target: Homeodomain-interacting protein kinase 4 (Homo sapiens) (UniProt Q8NE63); conditions: Compound concentration 1000.0 nM
# [4] = target: Serine/threonine-protein kinase D1 (Homo sapiens) (UniProt Q15139); conditions: Compound concentration 1000.0 nM
# [5] = target: Phosphatidylinositol 4,5-bisphosphate 3-kinase catalytic subunit gamma isoform (Homo sapiens) (UniProt P48736); conditions: Compound concentration 1000.0 nM
# [6] = target: Dual specificity mitogen-activated protein kinase kinase 7 (Homo sapiens) (UniProt O14733); conditions: Compound concentration 1000.0 nM
# [7] = target: Serine/threonine-protein kinase Chk1 (Homo sapiens) (UniProt O14757); conditions: Compound concentration 1000.0 nM
# [8] = target: Activin receptor type-1-like (Homo sapiens) (UniProt P37023); conditions: Compound concentration 1000.0 nM
# Chain of Activin receptor type-1-like (Homo sapiens) (P37023 whole entry): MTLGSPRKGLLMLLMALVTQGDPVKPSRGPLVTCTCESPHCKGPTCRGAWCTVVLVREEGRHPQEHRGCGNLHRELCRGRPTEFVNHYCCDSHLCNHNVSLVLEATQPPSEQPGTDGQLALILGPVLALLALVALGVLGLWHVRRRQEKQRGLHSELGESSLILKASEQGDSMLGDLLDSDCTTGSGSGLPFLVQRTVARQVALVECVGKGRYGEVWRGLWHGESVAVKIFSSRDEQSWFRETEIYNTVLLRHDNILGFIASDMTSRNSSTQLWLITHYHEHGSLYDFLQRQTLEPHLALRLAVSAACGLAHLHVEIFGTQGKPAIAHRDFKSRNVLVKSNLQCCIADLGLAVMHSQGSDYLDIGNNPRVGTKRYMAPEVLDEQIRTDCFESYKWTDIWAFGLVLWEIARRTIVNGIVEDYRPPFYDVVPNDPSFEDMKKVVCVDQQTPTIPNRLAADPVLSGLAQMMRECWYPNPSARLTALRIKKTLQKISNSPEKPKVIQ
# [9] = target: Mitogen-activated protein kinase kinase kinase 10 (Homo sapiens) (UniProt Q02779); conditions: Compound concentration 1000.0 nM
# [10] = target: Mitogen-activated protein kinase 6 (Homo sapiens) (UniProt Q16659); conditions: Compound concentration 1000.0 nM
# [11] = target: Macrophage-stimulating protein receptor (Homo sapiens) (UniProt Q04912); conditions: Compound concentration 1000.0 nM
# [12] = target: Cyclin-dependent kinase-like 1 (Homo sapiens) (UniProt Q00532); conditions: Compound concentration 1000.0 nM
# [13] = target: Serine/threonine-protein kinase 26 (Homo sapiens) (UniProt Q9P289); conditions: Compound concentration 1000.0 nM
# [14] = target: Serine/threonine-protein kinase PAK 6 (Homo sapiens) (UniProt Q9NQU5); conditions: Compound concentration 1000.0 nM
# [15] = target: Aurora kinase B (Homo sapiens) (UniProt Q96GD4); conditions: Compound concentration 1000.0 nM
# Chain of Aurora kinase B (Homo sapiens) (Q96GD4 whole entry): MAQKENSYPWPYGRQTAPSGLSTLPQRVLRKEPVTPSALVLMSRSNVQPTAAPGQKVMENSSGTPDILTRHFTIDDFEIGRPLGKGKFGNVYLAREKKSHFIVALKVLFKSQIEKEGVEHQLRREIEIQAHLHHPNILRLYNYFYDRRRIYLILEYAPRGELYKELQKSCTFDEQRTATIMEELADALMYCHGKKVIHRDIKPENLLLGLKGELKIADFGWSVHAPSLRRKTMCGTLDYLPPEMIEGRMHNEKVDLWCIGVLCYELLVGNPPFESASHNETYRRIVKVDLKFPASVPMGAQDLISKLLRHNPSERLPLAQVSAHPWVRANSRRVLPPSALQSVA
# [16] = target: Cyclin-dependent kinase 11B (Homo sapiens) (UniProt P21127); conditions: Compound concentration 1000.0 nM
# [17] = target: Serine/threonine-protein kinase DCLK1 (Homo sapiens) (UniProt O15075); conditions: Compound concentration 1000.0 nM
# [18] = target: Mitogen-activated protein kinase kinase kinase 1 (Homo sapiens) (UniProt Q13233); conditions: Compound concentration 1000.0 nM
# [19] = target: Tyrosine-protein kinase CSK (Homo sapiens) (UniProt P41240); conditions: Compound concentration 1000.0 nM
# [20] = target: Tyrosine-protein kinase JAK1 (Homo sapiens) (UniProt P23458); conditions: Compound concentration 1000.0 nM
# [21] = target: Mitogen-activated protein kinase kinase kinase 9 (Homo sapiens) (UniProt P80192); conditions: Compound concentration 1000.0 nM
# Chain of Mitogen-activated protein kinase kinase kinase 9 (Homo sapiens) (P80192 whole entry, looked up): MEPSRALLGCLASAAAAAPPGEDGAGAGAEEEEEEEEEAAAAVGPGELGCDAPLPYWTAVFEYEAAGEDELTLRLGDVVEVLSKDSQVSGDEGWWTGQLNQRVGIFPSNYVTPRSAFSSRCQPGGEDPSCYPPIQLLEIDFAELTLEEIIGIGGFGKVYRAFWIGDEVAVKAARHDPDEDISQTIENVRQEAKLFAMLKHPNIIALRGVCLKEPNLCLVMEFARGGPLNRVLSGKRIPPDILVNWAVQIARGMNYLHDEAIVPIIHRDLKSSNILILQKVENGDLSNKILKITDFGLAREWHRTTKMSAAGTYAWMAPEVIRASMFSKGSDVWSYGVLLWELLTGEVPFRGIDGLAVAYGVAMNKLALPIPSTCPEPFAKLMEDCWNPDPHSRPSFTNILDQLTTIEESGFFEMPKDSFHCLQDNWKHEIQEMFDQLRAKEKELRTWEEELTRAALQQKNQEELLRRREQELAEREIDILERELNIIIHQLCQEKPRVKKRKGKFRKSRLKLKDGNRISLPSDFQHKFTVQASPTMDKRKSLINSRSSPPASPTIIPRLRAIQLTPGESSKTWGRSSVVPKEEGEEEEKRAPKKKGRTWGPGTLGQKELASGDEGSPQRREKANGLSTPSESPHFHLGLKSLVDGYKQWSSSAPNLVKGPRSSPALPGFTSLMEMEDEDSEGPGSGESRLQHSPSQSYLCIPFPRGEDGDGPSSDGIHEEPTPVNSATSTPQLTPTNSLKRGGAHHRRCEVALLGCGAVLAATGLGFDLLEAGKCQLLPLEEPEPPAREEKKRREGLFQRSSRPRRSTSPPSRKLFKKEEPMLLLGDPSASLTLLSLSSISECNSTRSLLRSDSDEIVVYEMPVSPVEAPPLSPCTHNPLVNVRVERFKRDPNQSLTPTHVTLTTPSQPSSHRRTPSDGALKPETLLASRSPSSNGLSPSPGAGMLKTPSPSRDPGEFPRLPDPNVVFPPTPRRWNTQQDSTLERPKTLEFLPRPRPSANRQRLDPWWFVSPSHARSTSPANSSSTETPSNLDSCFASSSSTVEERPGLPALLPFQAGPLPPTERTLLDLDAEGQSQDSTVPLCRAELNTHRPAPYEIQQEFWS
# [22] = target: Uncharacterized serine/threonine-protein kinase SBK3 (Homo sapiens) (UniProt P0C264); conditions: Compound concentration 1000.0 nM
# Chain of Uncharacterized serine/threonine-protein kinase SBK3 (Homo sapiens) (P0C264 whole entry): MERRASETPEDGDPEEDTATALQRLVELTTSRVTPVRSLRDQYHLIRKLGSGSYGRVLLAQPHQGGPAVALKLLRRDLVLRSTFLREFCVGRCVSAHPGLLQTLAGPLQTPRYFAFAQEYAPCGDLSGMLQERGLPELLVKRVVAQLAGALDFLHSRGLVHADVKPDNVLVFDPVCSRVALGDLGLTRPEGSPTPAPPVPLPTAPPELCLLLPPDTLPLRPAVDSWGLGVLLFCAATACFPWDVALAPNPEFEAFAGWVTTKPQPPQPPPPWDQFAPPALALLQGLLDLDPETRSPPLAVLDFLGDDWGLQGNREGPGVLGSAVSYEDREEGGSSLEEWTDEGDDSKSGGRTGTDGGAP
# [23] = target: Serine/threonine-protein kinase TAO2 (Homo sapiens) (UniProt Q9UL54); conditions: Compound concentration 1000.0 nM
# [24] = target: Mitogen-activated protein kinase kinase kinase 7 (Homo sapiens) (UniProt O43318); conditions: Compound concentration 1000.0 nM
# [25] = target: Ribosomal protein S6 kinase alpha-1 (Homo sapiens) (UniProt Q15418); conditions: Compound concentration 1000.0 nM
# [26] = tested on: Mast/stem cell growth factor receptor Kit (Homo sapiens), P10721 [D816H]; conditions: Compound concentration 1000.0 nM
# [27] = target: T1, 5-hydroxytryptamine receptor 3A (Homo sapiens) (UniProt P46098); conditions: Compound concentration 10.0 uM
# T1 sequence (whole entry): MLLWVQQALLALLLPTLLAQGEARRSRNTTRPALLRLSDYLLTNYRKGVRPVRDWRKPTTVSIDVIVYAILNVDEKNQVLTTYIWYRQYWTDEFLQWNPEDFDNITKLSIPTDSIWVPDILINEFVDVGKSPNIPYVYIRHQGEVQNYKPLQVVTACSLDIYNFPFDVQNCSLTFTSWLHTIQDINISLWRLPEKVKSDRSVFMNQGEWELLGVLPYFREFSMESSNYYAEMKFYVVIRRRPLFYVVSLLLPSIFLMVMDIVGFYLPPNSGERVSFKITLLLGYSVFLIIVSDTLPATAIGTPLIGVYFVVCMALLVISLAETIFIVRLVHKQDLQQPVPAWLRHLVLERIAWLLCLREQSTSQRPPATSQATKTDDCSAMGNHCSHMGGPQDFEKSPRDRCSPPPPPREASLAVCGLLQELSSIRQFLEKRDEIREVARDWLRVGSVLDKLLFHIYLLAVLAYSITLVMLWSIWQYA
# [28] = target: Mitogen-activated protein kinase kinase kinase kinase 3 (Homo sapiens) (UniProt Q8IVH8); conditions: Compound concentration 1000.0 nM
# [29] = target: Casein kinase II subunit alpha' (Homo sapiens) (UniProt P19784); conditions: Compound concentration 1000.0 nM
# [30] = target: Inhibitor of nuclear factor kappa-B kinase subunit alpha (Homo sapiens) (UniProt O15111); conditions: Compound concentration 1000.0 nM
# [31] = target: Ribosomal protein S6 kinase alpha-3 (Homo sapiens) (UniProt P51812); conditions: Compound concentration 1000.0 nM
# [32] = target: Mast/stem cell growth factor receptor Kit (Homo sapiens) (UniProt P10721); conditions: Compound concentration 1000.0 nM
# [33] = target: Serine/threonine-protein kinase WNK1 (Homo sapiens) (UniProt Q9H4A3); conditions: Compound concentration 1000.0 nM
# [34] = target: Calcium/calmodulin-dependent protein kinase type II subunit beta (Homo sapiens) (UniProt Q13554); conditions: Compound concentration 1000.0 nM
# Chain of Calcium/calmodulin-dependent protein kinase type II subunit beta (Homo sapiens) (Q13554 whole entry): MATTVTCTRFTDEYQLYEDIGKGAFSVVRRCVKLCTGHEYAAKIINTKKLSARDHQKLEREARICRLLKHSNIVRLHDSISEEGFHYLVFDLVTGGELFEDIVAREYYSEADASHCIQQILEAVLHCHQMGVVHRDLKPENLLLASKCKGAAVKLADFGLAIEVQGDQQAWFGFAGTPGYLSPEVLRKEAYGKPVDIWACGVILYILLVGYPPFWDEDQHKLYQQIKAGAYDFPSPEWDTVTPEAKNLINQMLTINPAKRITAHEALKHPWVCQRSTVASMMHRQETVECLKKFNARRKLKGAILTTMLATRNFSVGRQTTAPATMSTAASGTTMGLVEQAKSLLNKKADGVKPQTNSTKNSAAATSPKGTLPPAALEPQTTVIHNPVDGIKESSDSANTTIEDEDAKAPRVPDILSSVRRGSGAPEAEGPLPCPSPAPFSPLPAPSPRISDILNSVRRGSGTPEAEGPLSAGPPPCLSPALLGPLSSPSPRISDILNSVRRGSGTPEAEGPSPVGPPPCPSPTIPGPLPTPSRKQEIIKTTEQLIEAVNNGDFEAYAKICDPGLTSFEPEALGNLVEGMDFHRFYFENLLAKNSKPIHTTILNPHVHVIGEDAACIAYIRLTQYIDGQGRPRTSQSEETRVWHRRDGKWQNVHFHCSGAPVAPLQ
# [35] = tested on: Tyrosine-protein kinase ABL1 (Homo sapiens), P00519 [E255K]; conditions: Compound concentration 1000.0 nM
# [36] = target: Histamine H4 receptor (Homo sapiens) (UniProt Q9H3N8); conditions: Compound concentration 10.0 uM
# [37] = target: Ephrin type-A receptor 5 (Homo sapiens) (UniProt P54756); conditions: Compound concentration 1000.0 nM
# [38] = target: Serine/threonine-protein kinase 25 (Homo sapiens) (UniProt O00506); conditions: Compound concentration 1000.0 nM
# [39] = target: Dual specificity mitogen-activated protein kinase kinase 5 (Homo sapiens) (UniProt Q13163); conditions: Compound concentration 1000.0 nM
# Chain of Dual specificity mitogen-activated protein kinase kinase 5 (Homo sapiens) (Q13163 whole entry): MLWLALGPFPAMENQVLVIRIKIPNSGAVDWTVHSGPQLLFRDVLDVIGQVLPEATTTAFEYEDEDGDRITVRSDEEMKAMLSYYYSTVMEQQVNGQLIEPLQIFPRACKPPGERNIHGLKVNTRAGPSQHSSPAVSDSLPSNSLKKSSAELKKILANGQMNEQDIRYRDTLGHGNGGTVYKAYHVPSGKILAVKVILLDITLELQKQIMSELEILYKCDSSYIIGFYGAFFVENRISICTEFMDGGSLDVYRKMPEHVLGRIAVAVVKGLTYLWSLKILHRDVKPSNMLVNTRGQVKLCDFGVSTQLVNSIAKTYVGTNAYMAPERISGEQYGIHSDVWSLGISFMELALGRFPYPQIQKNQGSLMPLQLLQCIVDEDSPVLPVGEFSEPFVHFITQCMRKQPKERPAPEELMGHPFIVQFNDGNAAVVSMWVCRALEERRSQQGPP
# Chain of Homeodomain-interacting protein kinase 4 (Homo sapiens) (Q8NE63 whole entry): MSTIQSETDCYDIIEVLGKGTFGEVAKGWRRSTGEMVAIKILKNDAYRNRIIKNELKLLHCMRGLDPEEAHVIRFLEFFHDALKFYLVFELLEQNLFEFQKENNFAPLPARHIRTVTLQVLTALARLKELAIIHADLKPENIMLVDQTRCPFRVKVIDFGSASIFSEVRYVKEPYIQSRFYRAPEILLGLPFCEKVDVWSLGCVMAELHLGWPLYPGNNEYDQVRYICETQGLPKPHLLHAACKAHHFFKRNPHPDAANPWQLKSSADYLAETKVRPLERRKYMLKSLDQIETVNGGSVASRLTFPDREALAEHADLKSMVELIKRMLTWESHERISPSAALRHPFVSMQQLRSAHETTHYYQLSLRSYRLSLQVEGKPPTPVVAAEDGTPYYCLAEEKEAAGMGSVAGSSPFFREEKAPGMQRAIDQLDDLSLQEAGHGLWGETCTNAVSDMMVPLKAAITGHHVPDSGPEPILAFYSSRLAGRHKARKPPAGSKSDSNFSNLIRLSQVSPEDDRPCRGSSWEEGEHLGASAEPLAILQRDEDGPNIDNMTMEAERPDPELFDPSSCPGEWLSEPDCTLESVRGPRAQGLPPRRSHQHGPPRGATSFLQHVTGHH
# Chain of Phosphatidylinositol 4-kinase beta (Homo sapiens) (Q9UBF8 2-816 limits assumed): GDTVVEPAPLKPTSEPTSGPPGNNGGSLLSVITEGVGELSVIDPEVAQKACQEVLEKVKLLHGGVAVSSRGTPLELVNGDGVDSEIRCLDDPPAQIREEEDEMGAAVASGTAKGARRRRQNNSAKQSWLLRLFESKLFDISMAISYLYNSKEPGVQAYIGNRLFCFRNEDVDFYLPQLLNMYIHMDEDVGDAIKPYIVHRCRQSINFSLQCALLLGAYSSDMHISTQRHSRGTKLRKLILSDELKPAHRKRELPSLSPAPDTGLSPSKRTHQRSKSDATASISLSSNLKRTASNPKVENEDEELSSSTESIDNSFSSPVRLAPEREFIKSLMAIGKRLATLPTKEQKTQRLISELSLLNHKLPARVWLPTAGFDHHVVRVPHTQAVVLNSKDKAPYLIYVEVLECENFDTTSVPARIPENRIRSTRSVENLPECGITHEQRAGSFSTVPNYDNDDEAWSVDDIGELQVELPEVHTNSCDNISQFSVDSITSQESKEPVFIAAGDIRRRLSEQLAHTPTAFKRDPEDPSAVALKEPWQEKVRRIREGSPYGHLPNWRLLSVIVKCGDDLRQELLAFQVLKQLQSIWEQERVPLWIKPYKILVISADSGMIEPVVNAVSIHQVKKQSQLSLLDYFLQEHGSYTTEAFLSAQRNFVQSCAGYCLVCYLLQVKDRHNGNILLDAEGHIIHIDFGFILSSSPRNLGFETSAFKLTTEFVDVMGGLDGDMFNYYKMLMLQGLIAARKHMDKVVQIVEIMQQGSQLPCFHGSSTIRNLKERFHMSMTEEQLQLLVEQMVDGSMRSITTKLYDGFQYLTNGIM
SMILES,residual activity [1],residual activity [2],residual activity [3],residual activity [4],residual activity [5],residual activity [6],residual activity [7],residual activity [8],residual activity [9],residual activity [10],residual activity [11],residual activity [12],residual activity [13],residual activity [14],residual activity [15],residual activity [16],residual activity [17],residual activity [18],residual activity [19],residual activity [20],also measured
CS(=O)(=O)NCC[C@H](NC(=O)c1cncc2c1cnn2-c1ccc(F)cc1)c1ccnc(S(C)(=O)=O)c1 [BI 9307],100%,100%,100%,92%,80%,100%,97%,96%,75%,100%,99%,84%,98%,100%,100%,100%,94%,100%,98%,100%,residual activity [21]: 97%; residual activity [22]: 100%; residual activity [23]: 85%; residual activity [24]: 100%; residual activity [25]: 100%; residual activity [26]: 100%; inhibition [27]: 10.2%; residual activity [28]: 90%; residual activity [29]: 100%; residual activity [30]: 100%; residual activity [31]: 98%; residual activity [32]: 100%; residual activity [33]: 100%; residual activity [34]: 100%; residual activity [35]: 93%; inhibition [36]: -0.39%; residual activity [37]: 100%; residual activity [38]: 78%; residual activity [39]: 92%
CS(=O)(=O)c1cc(C2(NC(=O)c3cncc4c3cnn4-c3ccc(F)cc3)CC2)ccn1 [BI 639667],96%,100%,100%,100%,82%,91%,100%,100%,99%,100%,83%,69%,97%,96%,88%,81%,75%,100%,95%,83%,residual activity [21]: 100%; residual activity [22]: 100%; residual activity [23]: 97%; residual activity [24]: 94%; residual activity [25]: 79%; residual activity [26]: 49%; inhibition [27]: 12.9%; residual activity [28]: 87%; residual activity [29]: 80%; residual activity [30]: 100%; residual activity [31]: 100%; residual activity [32]: 96%; residual activity [33]: 100%; residual activity [34]: 100%; residual activity [35]: 100%; inhibition [36]: 1.36%; residual activity [37]: 100%; residual activity [38]: 100%; residual activity [39]: 80%
